Laboratory results: PubChem BioAssay (NCI)
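Briefly, cells in 96-well plates were exposed to five compound concentrations for 48 h, and endpoints were estimated by linear interpolation. Definition used: TGI = concentration required for complete inhibition of growth.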

How the values were obtained:
Assay in all cases: growth of human tumour cells (NCI), 48 h
[1] = tested on: 786-0 renal
[2] = tested on: HCT-15 colon
[3] = tested on: HL-60(TB) leukemia
[4] = tested on: IGROV1 ovarian
[5] = tested on: MDA-MB-435
[6] = tested on: NCI-H522 lung
[7] = tested on: OVCAR-3 ovarian
[8] = tested on: RXF 393 renal
[9] = tested on: SF-268 CNS
[10] = tested on: SK-MEL-28 melanoma
[11] = tested on: SK-MEL-5 melanoma
[12] = tested on: SNB-19 CNS
[13] = tested on: SW-620 colon
[14] = tested on: T-47D breast
[15] = tested on: TK-10 renal
[16] = tested on: U251 CNS

| SMILES | TGI [1] [µM] | TGI [2] [µM] | TGI [3] [µM] | TGI [4] [µM] | TGI [5] [µM] | TGI [6] [µM] | TGI [7] [µM] | TGI [8] [µM] | TGI [9] [µM] | TGI [10] [µM] | TGI [11] [µM] | TGI [12] [µM] | TGI [13] [µM] | TGI [14] [µM] | TGI [15] [µM] | TGI [16] [µM] |
| --- | --- | --- | --- | --- | --- | --- | --- | --- | --- | --- | --- | --- | --- | --- | --- | --- |
| N#Cc1c2c(c(N)oc1=O)C(c1ccccc1)CC(=O)N2 (configuration not stated) | > 100 | > 100 | > 100 | > 100 | > 100 | > 100 | > 100 | > 100 | > 100 | > 100 | > 100 | > 100 | > 100 | > 100 | > 100 | > 100 |
| CSC(=S)Nc1cccc(C)n1 | > 100 | > 100 | > 100 | > 100 | > 100 | > 100 | > 100 | > 100 | > 100 | > 100 | > 100 | > 100 | > 100 | > 100 | > 100 | > 100 |
| Nc1ccc2c(c1)nc1n2C(c2c(F)cccc2F)SC1 (configuration not stated) | > 100 | > 100 | > 100 | > 100 | > 100 | > 100 | > 100 | > 100 | > 100 | > 100 | > 100 | > 100 | > 100 | > 100 | > 100 | > 100 |
| CCOC(=O)c1nc2cc(C(F)(F)F)ccc2nc1Nc1ccc(OC)cc1 | > 100 | > 100 | > 100 | > 100 | > 100 | > 100 | > 100 | > 100 | > 100 | > 100 | > 100 | > 100 | > 100 | > 100 | > 100 | – |
| NC(=O)C(=CNC(=S)Nc1ccccc1)C(N)=O | > 100 | > 100 | > 100 | > 100 | > 100 | > 100 | > 100 | > 100 | > 100 | > 100 | > 100 | > 100 | > 100 | > 100 | – | > 100 |
| COc1ccc2c(c1)c1c(n2CCN(C)C)-c2ccccc2CC1 | 30.4 | 26.8 | – | 27 | 36.5 | 32.9 | 30.9 | – | 32.7 | 29.1 | 32.7 | 35.5 | 34.2 | 31.5 | 29.8 | 27.2 |
| NC1CC(=O)c2c1sc(Cl)c2Cl (configuration not stated) | > 100 | > 100 | > 100 | > 100 | > 100 | – | > 100 | > 100 | > 100 | > 100 | > 100 | > 100 | > 100 | > 100 | > 100 | > 100 |
| O=C1Cc2c([nH]c3ccc(Br)cc23)-c2cc(O)c(O)cc2N1 | > 100 | > 100 | – | – | > 100 | > 100 | > 100 | > 100 | > 100 | > 100 | – | > 100 | > 100 | > 100 | > 100 | > 100 |
| C[C@]12C[C@@H](OC(=O)[C@]1(C)O)[C@@H]([C@]1(O)CC[C@H]3[C@@H]4C[C@H]5O[C@]56C[C@H]5O[C@H]5C(=O)[C@]6(C)[C@H]4CC[C@@]31C)C2 | > 50 | > 50 | > 50 | > 50 | > 50 | > 50 | – | > 50 | > 50 | > 50 | > 50 | > 50 | > 50 | > 50 | > 50 | > 50 |
| Oc1ccc2cc(Br)ccc2c1-c1c(O)ccc2ccc(Br)cc12 | 28.2 | 29 | 38.2 | 20.7 | 31.1 | 29.9 | 27.8 | – | 41.1 | 33.5 | 37.5 | 29.3 | 24.2 | 25.3 | 31.2 | 28 |
| COC(=O)c1ccc(S)c(S(=O)(=O)Nc2n[nH]c(N)n2)c1 | > 100 | > 100 | > 100 | > 100 | > 100 | > 100 | > 100 | – | – | > 100 | > 100 | > 100 | > 100 | > 100 | > 100 | > 100 |
| COc1cc2c(c(O)c1OC)C(=O)[C@@H]1CCC(=O)N1C2 | > 100 | > 100 | > 100 | > 100 | > 100 | > 100 | > 100 | – | > 100 | > 100 | > 100 | > 100 | > 100 | > 100 | > 100 | > 100 |
| CCCCc1ccc(-n2sc3ncc(C)cc3c2=O)cc1 | > 100 | 59.1 | 32.7 | > 100 | > 100 | 40.6 | 47.8 | 73.8 | – | > 100 | 46.2 | > 100 | 78 | 63.1 | > 100 | > 100 |
| CCC1OC2C(CC=C(C)C)=C3OC(C)(O)C(C)(CC)C(OC(C)=O)C3=C3OC(=O)C=C1C32 (configuration not stated) | > 100 | > 100 | > 100 | 69.6 | 50.3 | 38.1 | > 100 | – | > 100 | 59.1 | 42.2 | 63.2 | > 100 | > 100 | > 100 | > 100 |
| CC(C)(C)C1=CC(C)(n2[nH]c(=O)n(-c3ccccc3)c2=O)C=C(C(C)(C)C)C1=O | > 100 | > 100 | – | – | > 100 | > 100 | – | – | > 100 | > 100 | > 100 | > 100 | > 100 | > 100 | > 100 | > 100 |
| O=C(c1cccs1)N(C(=S)OCCOc1ccccc1)c1ccccc1 | 73.7 | 84.7 | 48 | 79.2 | 33.7 | 45.1 | 41.6 | 51.9 | > 100 | 55.9 | – | > 100 | 80 | > 100 | > 100 | 48.8 |

| SMILES | TGI [1] [µM] | TGI [2] [µM] | TGI [3] [µM] | TGI [4] [µM] | TGI [5] [µM] | TGI [6] [µM] | TGI [7] [µM] | TGI [8] [µM] | TGI [9] [µM] | TGI [10] [µM] | TGI [11] [µM] | TGI [12] [µM] | TGI [13] [µM] | TGI [14] [µM] | TGI [15] [µM] | TGI [16] [µM] |
| --- | --- | --- | --- | --- | --- | --- | --- | --- | --- | --- | --- | --- | --- | --- | --- | --- |
| O=[N+]([O-])c1ccc(-c2nc3ccc(Cl)cc3[nH]2)cc1 | > 100 | > 100 | – | > 100 | > 100 | > 100 | > 100 | – | > 100 | > 100 | > 100 | > 100 | > 100 | > 100 | > 100 | – |
| CCOC(=O)NNC(=O)NCc1cccc(CNC(=O)NNC(=O)OCC)c1 | > 100 | > 100 | > 100 | – | > 100 | > 100 | > 100 | > 100 | > 100 | > 100 | > 100 | > 100 | > 100 | > 100 | > 100 | > 100 |
| COC(=O)C(CCSC)NC(=O)CNC(=O)CSc1nnc(COc2ccc(Cl)cc2)n1-c1ccccc1 (configuration not stated) | 29.5 | 37.8 | 38.3 | 30.2 | 37.9 | – | – | 35.9 | 32.7 | 33.3 | 31.4 | > 100 | 45.3 | 54.7 | 31.4 | 31 |
| COC(=O)[C@]1(NC(=O)c2ccccc2)C[C@H]1C=O | > 100 | > 100 | – | > 100 | > 100 | > 100 | > 100 | > 100 | > 100 | > 100 | > 100 | > 100 | > 100 | > 100 | > 100 | > 100 |
| CCOC(=O)CNC(=O)C(CSC(=O)N(O)c1ccc(Cl)cc1)NC(=O)CCC(N)C(=O)OCC (configuration not stated) | > 50 | > 50 | – | > 50 | > 50 | – | > 50 | > 50 | > 50 | > 50 | > 50 | > 50 | > 50 | > 50 | – | > 50 |
| COc1ccc(N2C(=O)/C(=C\c3cc(OC)c(OC)c(OC)c3)SC2c2ccccc2)cc1 (configuration not stated) | > 100 | > 100 | > 100 | – | > 100 | > 100 | > 100 | > 100 | > 100 | > 100 | > 100 | > 100 | > 100 | > 100 | > 100 | > 100 |
| c1ccc2oc(-c3ccc(-c4nc5ccccc5o4)c4c3CC4)nc2c1 | > 100 | > 100 | > 100 | > 100 | > 100 | – | > 100 | > 100 | > 100 | > 100 | > 100 | > 100 | > 100 | > 100 | > 100 | > 100 |
| CCOC(=O)C1(F)S(=O)(=O)OCCOS1(=O)=O | > 100 | > 100 | – | – | > 100 | > 100 | > 100 | > 100 | > 100 | > 100 | > 100 | > 100 | > 100 | > 100 | > 100 | > 100 |
| COc1ccc(/C=N/n2c(C)n[nH]c2=O)c(OC)c1 | > 100 | > 100 | – | – | > 100 | – | > 100 | – | > 100 | > 100 | – | > 100 | > 100 | > 100 | – | > 100 |
| Cc1ccc2nc(N/N=C/c3sccc3C)cc(C)c2c1 | > 100 | > 100 | > 100 | > 100 | > 100 | – | > 100 | > 100 | > 100 | > 100 | > 100 | > 100 | > 100 | > 100 | > 100 | > 100 |
| CCc1c(C)c(C#N)c(=S)n(C2OC(COC(C)=O)C(OC(C)=O)C(OC(C)=O)C2OC(C)=O)c1-c1ccccc1 (configuration not stated) | > 31.6 | > 31.6 | > 100 | > 31.6 | > 31.6 | > 31.6 | > 31.6 | – | > 31.6 | > 31.6 | > 31.6 | – | > 100 | > 31.6 | > 31.6 | 31 |
| CC1CN=C(N(Cc2ccccc2)C(=O)Nc2ccc(Cl)c(Cl)c2)S1 (configuration not stated) | > 100 | > 100 | > 10 | > 100 | – | – | > 100 | – | > 100 | 68.8 | 51.9 | > 100 | > 100 | > 100 | > 100 | > 100 |
| COc1c(=O)cc2cc[nH]c3ccn(C)c1c23 | > 100 | > 100 | – | > 100 | > 100 | – | > 100 | > 100 | > 100 | > 100 | – | > 100 | > 100 | > 100 | > 100 | > 100 |
| CCCCCCCC1(N=[N+]=[N-])C(=O)Nc2ccccc2C1=O (configuration not stated) | 32 | 47.3 | – | 25.6 | 34.2 | – | 29.6 | 25.1 | 33.3 | 30.7 | 28.4 | 32.4 | 26.4 | 35 | 31 | 28.8 |
| COc1cc(O)c2c(=O)c(O)c(-c3ccc(O)c(OC)c3)oc2c1 | > 100 | > 100 | > 23 | > 100 | – | 6.21 | > 100 | – | > 100 | – | > 34.9 | > 100 | > 100 | > 100 | > 100 | 18.1 |
| O=C1C(Cl)C2(CC(/C=C/c3ccccc3)=NN2c2cccc(S(=O)(=O)O)c2)N1c1nc2ccccc2s1 (configuration not stated) | 31 | 38.8 | 33.8 | 21.1 | 36.1 | 20.1 | – | 42.3 | 43.4 | > 100 | 30.2 | > 100 | 93.6 | 27.9 | 30.9 | 32.1 |
